Where two headings read alike, the source gives them in different places.
Key:
[1] = molecular target: T1, glutamine PRPP amidotransferase R307Q mutant enzyme (Bacillus subtilis, UniProt P00497, R318Q); type: biochemical
T1 construct: Enzymes of the B. subtilis class are synthesized with an NH2 terminal propeptide and an Fe—S center; made in house; host or cells: E. coli strain TX158 (purF) with plasmid pBsF/R307Q
Method: (§1) Enzyme activity was assayed by measuring the initial rate of formation of the product glutamate. […] Incubation was at 37° C. for 6 min. […] Reactions were quenched in a boiling water bath for 2 min, and glutamate was determined by the glutamate dehydrogenase method.
(§2) Inhibition by nucleotides was determined by the standard assay to which varied concentrations of nucleotide were added. Synergistic inhibition was determined by varying the concentration of one nucleotide in the presence of a fixed concentration of a second nucleotide. Relative activity (see FIG. 1) refers to the enzyme activity at a given concentration of the varied nucleotide relative to that in the absence of the varied nucleotide. I0.5 values were calculated from plots of relative activity versus varied nucleotide concentration.
(§3) These modified forms of amidotransferase were analyzed to determine the impact of the mutations on end-product inhibition and enzymatic activity. Inhibition by nucleotides was determined as described in Example 1.

[2] = molecular target: T2, glutamine PRPP amidotransferase S283A mutant enzyme (Bacillus subtilis, UniProt P00497, S294A); type: biochemical; conditions: for higher concentration required for 50% inhibition compared to wild type: ADP-GMP mixture
T2 construct: Enzymes of the B. subtilis class are synthesized with an NH2 terminal propeptide and an Fe—S center; made in house; host or cells: E. coli strain TX158 (purF) with plasmid pBsF/S283A
Method: as §1, §2, §3

Nc1ncnc2c1ncn2[C@@H]1O[C@H](COP(=O)(O)OP(=O)(O)O)[C@@H](O)[C@H]1O [ADP]
syn. ([1]; fixed GMP 0.50 mM): 12.0 | syn. ([1]; fixed GMP 5.0 mM): 156.0 | higher concentration required for 50% inhibition compared to wild type [2]: 30 fold | syn. ([2]; fixed GMP 0.50 mM): 5.0

Nc1nc2c(ncn2[C@@H]2O[C@H](COP(=O)(O)O)[C@@H](O)[C@H]2O)c(=O)[nH]1 [GMP]
syn. ([1]; fixed ADP 0.5 mM): 15.0 | syn. ([1]; fixed ADP 2.5 mM): 66.0 | higher concentration required for 50% inhibition compared to wild type [2]: 13 fold | syn. ([2]; fixed ADP 0.5 mM): 3.3 | syn. ([2]; fixed ADP 2.5 mM): 3.9 | I0.5 increase relative to wild type ([2]; single nucleotide): similar

From patent publication US6586216B2 (Purdue Research Foundation, priority 1997, dated 2003)
